Measured values reported in publication PMC10458698, “Characterization of the interferences of systemic azole antifungal drugs with adrenal steroid biosynthesis using H295R cells and enzyme activity assays” (Current Research in Toxicology, 2023).
Where two headings read alike, the source gives them in different places.

Assays:
CYP21A2 = target: T1, CYP21A2 (Homo sapiens, UniProt P08686); test: CYP21A2 activity assay, microsomes of transfected COS-1 cells; type: biochemical; settings: cell-free, progesterone 500 nM, 10 min
T1 construct: host or cells: COS-1 cells, transient transfection, microsomal fraction
T1 sequence (P08686 1-495): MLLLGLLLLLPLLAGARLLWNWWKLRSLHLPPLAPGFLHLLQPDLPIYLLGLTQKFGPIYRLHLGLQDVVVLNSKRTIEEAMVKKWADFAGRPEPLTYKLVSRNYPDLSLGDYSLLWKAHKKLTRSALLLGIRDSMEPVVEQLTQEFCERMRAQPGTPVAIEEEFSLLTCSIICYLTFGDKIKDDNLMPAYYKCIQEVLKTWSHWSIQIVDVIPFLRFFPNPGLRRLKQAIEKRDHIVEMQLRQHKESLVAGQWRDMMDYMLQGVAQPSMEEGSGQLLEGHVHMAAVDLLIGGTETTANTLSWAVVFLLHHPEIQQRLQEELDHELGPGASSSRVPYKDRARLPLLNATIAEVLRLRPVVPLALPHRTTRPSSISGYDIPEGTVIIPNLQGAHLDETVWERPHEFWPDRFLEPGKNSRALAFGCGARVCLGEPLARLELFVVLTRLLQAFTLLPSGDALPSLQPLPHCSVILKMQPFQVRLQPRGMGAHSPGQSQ
Experimental: (§1) Microsomes were prepared from COS-1 cells transiently transfected with plasmids for either CYP17A1 and POR for CYP17A1-hydroxylase assay (human CYP17A1 was available in our own plasmid collection after cloning into pcDNA3, POR was ordered from Genescript, Piscataway, USA, clone ID OHu25584C), CYP17A1, POR and cytochrome b5 for CYP17A1 17,20-lyase assay (cytochrome b5 was from Genescript, clone ID OHu09495D), POR and CYP21A2 (Genescript, CYP21A2 clone ID OHu18602D), or 3β-HSD2 (Genescript, clone ID OHu14034D). Transfection was performed using PEI and equal amounts of required plasmids with a total DNA amount of 8 µg per transfection of 3,000,000 cells. After overnight incubation, cells were washed with prewarmed PBS before adding ice-cold PBS. Cells were collected and centrifuged at 600 × g for 4 min at 4 °C, washed with ice cold PBS and centrifuged again. The pellet was resuspended in a resuspension buffer (20 mM Tris, pH 7.5, 50 mM KCl, 2 mM MgCl2, 0.25 M sucrose). Cells were disrupted with 30 S by a glass potter (2 cm^3) as described above. The homogenate was centrifuged for 20 min at 12,000 × g and 4 °C. Microsomes were pelleted by ultracentrifugation at 100,000 × g for 1 h at 4 °C. The pellet was resuspended in reaction buffer and the protein concentration determined using the Pierce Protein BCA kit as described above.
(§2) Microsomal protein (250 µg/mL) was preincubated with 1 mM NADPH and the compound of interest in reaction buffer for 10 min. The reaction was started by adding progesterone spiked with a radioactive tracer (final activity 0.025 mCi) to a final concentration of 500 nM. After 10 min of incubation at 37 °C the reaction was stopped by adding enzyme substrate and product at a final concentration of 1 mM in methanol, followed by shock-freezing in liquid nitrogen. Steroids were separated by thin layer chromatography on SIL G-25 UV254 TLC plates (Macherey-Nagel, Düren, Germany) using chloroform and ethyl acetate (1:4; v:v). Bands were excised and radiolabeled steroids analyzed by scintillation counting using […] Plus cocktail (Zinsser Analytic, Frankfurt am Main, Germany) and a β-counter (Packard, Connecticut, USA). Relative conversion was calculated based on total counts.

CYP17A1 17α-hydroxylase = target: T2, CYP17A1 17α-hydroxylase (Homo sapiens, UniProt P05093); test: CYP17A1 17α-hydroxylase activity assay, microsomes of transfected COS-1 cells; type: biochemical; settings: cell-free
T2 construct: expressed in transfected cells; host or cells: COS-1 cells, transient transfection, microsomal fraction
T2 sequence (P05093 1-508): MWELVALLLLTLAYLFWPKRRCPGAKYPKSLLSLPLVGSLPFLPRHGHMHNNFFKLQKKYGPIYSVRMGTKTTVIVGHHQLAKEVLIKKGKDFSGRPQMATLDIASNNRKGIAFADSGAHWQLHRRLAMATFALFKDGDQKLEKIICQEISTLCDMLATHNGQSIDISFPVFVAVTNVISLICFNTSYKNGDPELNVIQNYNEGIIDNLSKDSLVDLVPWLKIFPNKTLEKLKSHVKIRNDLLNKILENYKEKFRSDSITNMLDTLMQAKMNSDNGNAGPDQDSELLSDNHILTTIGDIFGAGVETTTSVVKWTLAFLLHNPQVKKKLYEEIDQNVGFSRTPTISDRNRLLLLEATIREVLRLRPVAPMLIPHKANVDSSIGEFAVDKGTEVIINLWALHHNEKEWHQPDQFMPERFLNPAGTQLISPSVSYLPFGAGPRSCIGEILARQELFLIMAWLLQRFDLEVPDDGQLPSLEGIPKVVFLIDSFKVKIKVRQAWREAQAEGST
Experimental: as §1, §2

CYP17A1 17,20-lyase = target: T3, CYP17A1 17,20-lyase (Homo sapiens, UniProt P05093); test: CYP17A1 17,20-lyase activity assay, microsomes of transfected COS-1 cells; type: biochemical; settings: for IC50: cell-free, 17α-hydroxypregnenolone 500 nM, 1 h
T3 construct: expressed in transfected cells; host or cells: COS-1 cells, transient transfection, microsomal fraction
T3 sequence (P05093 1-508): T2 sequence (P05093 1-508)
Experimental: as §1
Microsomes, 250 µg/mL, expressing CYP17A1, POR and cytochrome b5 were incubated in reaction buffer for 10 min with 1 mM NADPH and the azole antifungals. The reaction was started by adding 500 nM 17α-hydroxypregnenolone in a total reaction volume of 50 µL. After 1 h of incubation at 37 °C, the reaction was stopped adding 50 µL methanol. Samples were evaporated to dryness, reconstituted in 6 µL methanol, diluted 1:25 in water and the DHEA concentration was quantified using an ELISA kit (DEH3344, Demeditec, Kiel, Germany). Absorbance was measured using a BioTek Citation5 imaging reader.

H295R cells = test: Steroidogenesis assay in forskolin-stimulated H295R cells, UHPLC-MS/MS; type: cell-based, human; settings: forskolin-stimulated, 48 h, in words
Experimental: Briefly, 200,000 cells/mL between passages 5 and 10 were seeded in a 24-well plate. After 24 h, the medium was replaced by fresh medium containing reference or test compounds. […] As a time zero control, complete medium was incubated without cells. After 48 h of incubation, the cell culture supernatant was collected and stored at −20 °C until steroid quantification was performed by ultra-high liquid chromatography tandem mass spectrometry (UHPLC-MS/MS). All experiments were performed three times independently in technical duplicates.
Using water, the sample volume was adapted to 1 mL. Samples were extracted using Oasis HLB 3 cc SPE cartridge (30 mg, 30 μm particle size, Waters, Massachusetts, USA). Columns were preconditioned with 1 mL ethyl acetate and water prior to application of samples. After sample loading, columns were washed three times with 1 mL methanol (10% v/v) and water before samples were eluted applying 0.75 mL ethyl acetate twice. Eluates were evaporated to dryness and reconstituted in 50 µL methanol. Samples were applied to a reverse phase column (Waters Acquity UPLC BEH C18, 1.7 μm, 2.1 mm × 150 mm). […] Applied mobile phases consisted of water, acetonitrile and formic acid (95/5/0.1; v/v/v and 5/95/0.1; v/v/v). For data analysis, Hunter software version B.09.00 (Agilent Technologies) was used. Lower limit of detection (LOD), lower limit of quantification (LLOQ), and upper limit of quantification (ULOQ) are shown in Table 1.

[1] = parameters: method as in earlier work; settings: ref Zhang et al., 2018, Märtson et al., 2019, Vena et al., 2020, Risum et al., 2021, cited from earlier work
11β-HSD2 = system: 11β-HSD2; parameters: method as in Beck et al., 2017, Beck et al., 2020a; settings: in words, ref Beck et al., 2017, Beck et al., 2020a; cited from earlier work
CYP11A1 = target: T4, CYP11A1 (Homo sapiens, UniProt P05108); test: CYP11A1 assay based on mitochondrial fraction of V79-4 cells; type: biochemical; settings: 10 µM, 20S-hydroxycholesterol 2 µM, 4 h, qualitative, assay of low sensitivity
T4 construct: host or cells: V79-4 cells (Chinese hamster), transient transfection, mitochondrial fraction
T4 sequence (P05108 40-521): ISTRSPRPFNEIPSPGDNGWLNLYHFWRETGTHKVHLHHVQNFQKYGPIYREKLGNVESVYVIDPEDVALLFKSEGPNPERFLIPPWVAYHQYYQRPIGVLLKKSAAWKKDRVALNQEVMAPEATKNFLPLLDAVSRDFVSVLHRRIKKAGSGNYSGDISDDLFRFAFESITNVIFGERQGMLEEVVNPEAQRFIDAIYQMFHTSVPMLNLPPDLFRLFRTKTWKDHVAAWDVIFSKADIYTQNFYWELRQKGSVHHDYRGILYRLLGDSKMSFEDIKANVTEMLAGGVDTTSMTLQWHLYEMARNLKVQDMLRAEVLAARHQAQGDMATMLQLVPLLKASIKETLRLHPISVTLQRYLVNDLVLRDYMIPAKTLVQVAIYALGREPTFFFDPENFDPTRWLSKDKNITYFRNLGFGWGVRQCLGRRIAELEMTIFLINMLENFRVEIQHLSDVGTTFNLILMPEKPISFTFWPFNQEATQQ
Experimental: Mitochondria were prepared as described previously with modifications ([Frezza et al., 2007]). Briefly, V79-4 cells (3,000,000) were seeded 4 h prior to transfection with 4 µg of expression plasmid for CYP11A1 and adrenodoxin (GeneScript Piscataway, USA, clone IDs OHu18602D and OHu55929D) using polyethylemine (PEI) in a PEI/DNA ratio of 3:1 (w/w). At 4 h post-transfection, medium was changed and cells were incubated overnight. Cells were collected in ice cold phosphate buffered saline (PBS) and centrifuged at 600 × g for 10 min at 4 °C. The pellet was resuspended in ice cold isolation buffer (10 mM Tris/MOPS, pH 7.4, 1 mM EGTA/Tris, pH 7.4, 200 mM sucrose in water) and transferred to a glass potter, followed by 35 S using a 2 cm^3 glass Teflon pestle. The homogenate was centrifuged for 10 min at 600 × g and 4 °C. The supernatant was collected and centrifuged for 10 min at 7000 × g at 4 °C. The pellet was washed and resuspended in 200 μL ice cold isolation buffer. After centrifugation, the pellet containing the mitochondrial fraction was resuspended in 30 μL reaction buffer (25 mM HEPES pH 7.4, 0.1 mM DTT, 0.1 mM EDTA, 4 mM MgCl2) and the protein content was determined by the BCA assay according to the manufacturer (Pierce BCA protein assay kit, Thermo Scientific, Rockford, USA). Bovine serum albumin provided with the kit was used as reference protein and absorbance was measured using a BioTek Cytation5 Imaging Reader (Agilent BioTek).
For the CYP11A1 activity assay, 500 µg/mL of freshly prepared mitochondrial fraction were pre-incubated on ice with reaction buffer, 1 mM NADPH and either vehicle (0.1% DMSO), 10 µM of the positive control ketoconazole ([Mast et al., 2013]) or the triazole antifungals for 10 min. The reaction was started by adding the substrate 20S-hydroxycholesterol at a final concentration of 2 µM in a reaction volume of 50 µL. After 4 h of incubation at 37 °C, the reaction was stopped by adding 50 µL methanol and shock-freezing in liquid nitrogen. Samples were stored at −80 °C until sample preparation for pregnenolone detection using an ELISA kit (Alpco, Salem, USA). Sample preparation included evaporation of samples to dryness, reconstitution in 6 µL methanol and 1:25 (v:v) dilution in water. The ELISA was performed according to the manufacturer and absorbance was measured using a BioTek Citation5 imaging reader.

[2] = progesterone 500 nM, 10 min, read-out: IC50 CYP17A1 17α-hydroxylase mean

inhibition of CYP17A1 17α-hydroxylase (CYP17A1 17α-hydroxylase; in words) | lower inhibitory potency against 17,20-lyase than posaconazole (CYP17A1 17,20-lyase; relative to posaconazole) [times] | inhibition of CYP11A1 activity (CYP11A1) | Structure (SMILES) | IC50 (CYP21A2) [nM] | IC50 (CYP17A1 17α-hydroxylase; [2]) [nM] | IC50 (CYP17A1 17,20-lyase) [nM] | effect on the steroid profile (H295R cells) | serum trough concentration ([1]; molar value in brackets) [µM] | serum trough concentration [1] [µg/mL] | inhibition of 11β-HSD2 (11β-HSD2) | IC50 (CYP17A1 17α-hydroxylase; read-out: IC50 against 17α-hydroxylase) [nM]
very weakly | 10 |  | CC(O)C(C)n1ncn(-c2ccc(N3CCN(c4ccc(OCC5COC(Cn6cncn6)(c6ccc(Cl)cc6Cl)O5)cc4)CC3)cc2)c1=O (centres unmarked) [OH-itraconazole, Hydroxyitraconazole] | > 10000 | 7160 | 2480 |  |  |  |  | 
 |  |  | OC(Cn1cncn1)(Cn1cncn1)c1ccc(F)cc1F [fluconazole] | > 10000 | > 10000 | > 10000 | only minor effects on the steroid profile | ~3 | 11 | inactive | 
 |  | weak inhibitory effect | CC(=O)N1CCN(c2ccc(OCC3COC(Cn4ccnc4)(c4ccc(Cl)cc4Cl)O3)cc2)CC1 (centres unmarked) [ketoconazole] |  |  |  |  |  |  |  | 
 |  |  | CCCN(CCOc1c(Cl)cc(Cl)cc1Cl)C(=O)n1ccnc1 [prochloraz] | 210 | 90 | 40 | significant accumulation of progesterone |  |  |  | 94.5
 |  |  | C[C@@H](c1ncncc1F)[C@](O)(Cn1cncn1)c1ccc(F)cc1F [voriconazole] | > 10000 | > 10000 | > 10000 | only minor effects on the steroid profile |  |  | inactive | 
